Tests used:
HuBChE = target: T1, HuBChE (Homo sapiens, UniProt P06276); experiment: Ellman assay, […] nm; global fit of hydrolysis inhibition and carbamoylation; type: biochemical; settings: read-out: HuBChE (BTCh)
T1 construct: gene BCHE; native human enzyme, commercial (Sigma Chemical Co.)

DmAChE = target: T2, DmAChE (Drosophila melanogaster, UniProt P07140); experiment: as above; type: biochemical; settings: read-out: DmAChE (ATCh)
T2 construct: gene Ace

CCN(CC)C(=O)c1cccc(C)c1 [deet, N,N-Diethyl-3-methylbenzamide]
Ki (HuBChE): 370 ± 50 µM
Ki (DmAChE): 1.02 ± 0.03 mM

Source: publication PMC2739159, “Evidence for inhibition of cholinesterases in insect and mammalian nervous systems by the insect repellent deet” (BMC Biology, 2009)
